Data set [1] has as its target T1, serotonin 1A receptor (Rattus norvegicus, UniProt P19327).
T1 construct: To the receptor fraction of the hippocampus were added a test compound and 0.5 nM of [^3H]; 8-hydroxy-dipropylaminotetralin; from tissue; host or cells: rat hippocampus membrane fraction
T1 sequence (P19327 1-422): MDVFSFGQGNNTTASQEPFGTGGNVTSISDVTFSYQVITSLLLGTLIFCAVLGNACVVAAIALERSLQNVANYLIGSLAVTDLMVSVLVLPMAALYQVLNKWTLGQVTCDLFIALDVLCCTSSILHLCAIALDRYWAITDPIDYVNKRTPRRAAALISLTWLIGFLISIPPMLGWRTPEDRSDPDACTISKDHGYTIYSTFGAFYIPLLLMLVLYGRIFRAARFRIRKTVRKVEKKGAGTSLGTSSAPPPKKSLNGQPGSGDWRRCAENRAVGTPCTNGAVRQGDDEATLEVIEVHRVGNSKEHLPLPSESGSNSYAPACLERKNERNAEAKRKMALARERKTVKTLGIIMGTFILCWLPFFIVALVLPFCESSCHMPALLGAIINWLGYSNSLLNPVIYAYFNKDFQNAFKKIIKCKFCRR
Description: Binding test on [3H] 8-hydroxy-dipropylaminotetralin, hippocampus receptor fraction. Also on record: species or system SD rats. Conditions: rat hippocampus receptor fraction, 0.5 nM [3H] 8-OH-DPAT, room temperature 30 min; read-out: 5HT1.
Description: (1) Binding test on serotonin 1A, serotonin 2 and α1 adrenalin receptors
The following reagents were employed in this test. • 1) Serotonin binoxalate (5-HT binoxalate, mfd. by Sigma Chemical Co.). • 2) Methysergide maleate (mfd. by RBI).
As radioisotope-labeled compounds, use was made of the following reagents (mfd. by NEN). • 3) [^3H] 8-Hydroxy-dipropylaminotetralin (8-OH-DPAT). • 4) [^3H]
Methysergide maleate was dissolved in distilled water before using.
Use was made of SD rats aged 6 to 8 weeks.
The rats were sacrificed by dcapitation to extirpate the cerebra. The hippocampus and cortex were separated therefrom and employed in the binding tests respectively on the serotonin 1A receptor and the serotonin 2 receptor.
The hippocampus was mixed with 50 times (on the wet weight basis) as much as 0.32 M sucrose solution while the cortex was mixed with 10 times as much the same solution. Each mixture was homogenized by using a Teflon glass homogenizer and centrifuged as 1,000× g for 10 min. The supernatant thus obtained was further centrifuged at 20,000× g for 20 min. The obtained precipitate was re-suspended in 50 times (based on the initial wet weight; in the case of the hippocampus) or 10 times (in the case of the cortex) as much a 50 Tris hydrochloride (pH 7.4) and incubated at room temperature for 30 min. After centrifuging at 20,000× g for 20 min, the obtained precipitate was further suspended and centrifuged twice each in the same manner. The precipitate thus obtained was suspended in 100 times (based on the initial wet weight; in the case of the hippocampus) or 20 times (in the case of the cortex) as much a 50 mM Tris hydrochloride solution (pH 7.4) to thereby give a receptor fraction. This receptor fraction was stored at −80° C. until using.
To the receptor fraction of the hippocampus were added a test compound and 0.5 nM of [^3H] 8-hydroxy-dipropylaminotetralin and the resultant mixture was incubated at room temperature for 30 min. Next, it was filtered through a glass filter with the use of a cell harvester. After washing the glass filter with 50 mM Tris hydrochloride (pH 7.4), the radioactivity of the receptor was measured with a liquid scintillation counter. The binding detected in the presence of 10 μM of serotonin binoxalate was referred to as the nonspecific binding.
IC50 was calculated by the probit method, while Ki was determined in accordance with the following formula: Ki=IC50(1+c/Kd) wherein c represents the concentration of the radioisotope-labeled compound, and Kd represents the dissociation constant of the radioisotope-labeled compound with respect to the receptor determined by Scatchard's analysis.

Data set [2] deals with T2, serotonin 2 receptor (Rattus norvegicus, UniProt P14842).
T2 construct: To the receptor fraction of the cerebral cortex were added a test compound and 0.3 nM of [^3H] ketanserin; from tissue; host or cells: rat cerebral cortex membrane fraction
T2 sequence (P14842 whole entry): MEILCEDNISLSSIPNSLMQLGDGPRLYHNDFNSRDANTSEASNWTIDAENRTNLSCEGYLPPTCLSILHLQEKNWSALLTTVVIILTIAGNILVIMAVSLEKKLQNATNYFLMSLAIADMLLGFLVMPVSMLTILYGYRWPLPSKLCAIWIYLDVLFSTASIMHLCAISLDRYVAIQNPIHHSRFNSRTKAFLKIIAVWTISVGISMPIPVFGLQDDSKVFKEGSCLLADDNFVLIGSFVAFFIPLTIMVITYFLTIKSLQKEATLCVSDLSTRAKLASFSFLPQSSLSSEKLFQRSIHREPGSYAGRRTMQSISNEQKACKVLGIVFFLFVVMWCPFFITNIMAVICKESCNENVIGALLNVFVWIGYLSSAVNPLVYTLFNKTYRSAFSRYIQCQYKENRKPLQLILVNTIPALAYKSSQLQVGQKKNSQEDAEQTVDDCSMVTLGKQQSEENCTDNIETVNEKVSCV
As to the kind of experiment: Binding test on [3H] ketanserin, cerebral cortex receptor fraction. Also on record: species or system SD rats. Conditions: 0.3 nM [3H] ketanserin, 37° C. 15 min, read-out: 5HT2.

For 30 molecules, Ki and melting point results are on record in patent US6875761B2 (Eisai Co., Ltd., priority 1997, dated 2005).

The structures appear in SMILES notation. Where a name gives a salt, the structure may show the parent alone.

Broadly, the melting point is the temperature, or range, at which the solid turns liquid.

As to `CCN1CCN(c2nc(-c3cc(OC)c(OC)cc3OC)cc3ccccc23)CC1.Cl` [Example 16, 1-(4-ethylpiperazin-1-yl)-3-(2,4,5-trimethoxyphenyl)isoquinoline dihydrochloride], the melting point was in the range of 158 to 160 °C. In addition, the Ki in data set [1] was determined as 0.03 µM. Besides, the Ki in data set [2] was 0.044 µM.

For `CCN1CCN(c2nc(-c3ccc(/C=N\O)cc3)cc3ccccc23)CC1.Cl` [Example 60, (Z)-1-(4-Ethylpiperazin-1-Yl)-3-(4-Hydroxyiminomethylphenyl)Isoquinoline Hydrochloride], the melting point is 239 °C (dec.). In data set [1], the Ki is 0.0213 µM. In addition, the Ki in data set [2] was 0.0091 µM.

For the molecule `CCN1CCN(c2nc(-c3ccc(CCCO)c(C(N)=O)c3)cc3ccccc23)CC1` [Example 31, 3-[3-carboxamide-4-(3-hydroxypropyl)phenyl]-1-(4-ethylpiperazin-1-yl)isoquinoline], the melting point is 213 to 218 °C (dec.). Also, the Ki in data set [1] is 0.0107 µM. The Ki in data set [2] was found to be 0.0303 µM.

Consider `CCN1CCN(c2nc(-c3ccc(/C=N/O)cc3)cc3ccccc23)CC1.Cl` [Example 61, (E)-1-(4-Ethylpiperazin-1-Yl)-3-(4-Hydroxyiminomethylphenyl)Isoquinoline Hydrochloride], for which the melting point is 243 °C (dec.). Further, the Ki in data set [1] amounted to 0.0117 µM. Besides, the Ki in data set [2] came out at 0.0082 µM.

With `CCN1CCN(c2nc(-c3ccc(C4CCOCC4)s3)cc3ccccc23)CC1.Cl` [Example 166, 3-[2-(tetrahydropyran-4-yl]thiophen-5-yl]-1-(4-ethylpiperazin-1-yl)isoquinoline hydrochloride], the melting point lay within 251 to 253 °C. For the same molecule, the Ki in data set [1] turned out to be 0.0819 µM. Moreover, the Ki in data set [2] was determined as 0.0115 µM.

As for `CCN1CCN(c2nc(-c3cc(F)c(OCCO)c(F)c3)cc3ccccc23)CC1` (as salt: hydrochloride) [Example 370, 1-(4-ethylpiperazin-1-yl)-3-[3,5-difluoro-4-(2-hydroxyethoxy)phenyl]isoquinoline], the melting point lay in the range of 112.5 to 114 °C.

`CCN1CCN(c2nc(C#Cc3cncc(CCCOC)c3)cc3ccccc23)CC1` (as salt: hydrochloride) [Example 186, 1-(1-Ethylpiperazin-4-Yl)-3-[3-(3-Methoxypropyl)-5-Pyridyl]Ethynylisoquinoline]: the melting point was in the range of 135 to 140 °C.

For the molecule `CCN1CCN(c2nc(-c3ccc(CCCO)c(F)c3)cc3ccccc23)CC1` (as salt: hydrochloride) [Example 29], the melting point is 126 to 127 °C (dec.).

For `CCN1CCN(c2nc(-c3ccc(C(=O)N(C)CCO)cc3)cc3ccccc23)CC1` (as salt: oxalate) [Example 382, 1-(4-Ethylpiperazin-1-yl)-3-{4-[N-(2-Hydroxyethyl)-N-Methylcarbamoyl]Phenyl}Isoquinoline], the melting point lay in the range of 116 to 118 °C.

Molecule `CCN1CCN(c2nc(-c3ccc(N4CCOCC4)nc3)cc3ccsc23)CC1` (as salt: hydrochloride) [Example 263, 5-[2-(4-morpholinyl)pyridin-5-yl]-7-(4-ethylpiperazin-1-yl)thieno[2,3-c]pyridine Hydrochloride] displayed a melting point of 182 to 185 °C.

`CCN1CCN(c2nc(/C=C/c3ccc(S(C)(=O)=O)cc3)cc3ccccc23)CC1` (as salt: hydrochloride) [Example 201, 3-[(E)-2-(4-Methylsulfonylphenyl)Ethenyl]-1-(4-Ethylpiperazin-1-Yl)Isoquinoline Hydrochloride] registered a melting point of 170 to 174 °C.

In turn, `CCCS(=O)(=O)c1ccc(-c2cc3ccccc3c(N3CCN(CCO)CC3)n2)cc1` (as salt: oxalate) came in with a melting point of 127 to 129 °C.

`CCN1CCN(c2nc(-c3ccc(C(N)=O)cc3)cc3ccccc23)CC1` (as salt: hydrochloride) [Example 408, 1-(4-ethylpiperazin-1-yl)-3-(4-carbamoylphenyl)isoquinoline] had a melting point of 197 to 199 °C.

With `CCCNC(=O)c1ccc(-c2cc3ccsc3c(N3CCN(CC)CC3)n2)cc1` (as salt: hydrochloride) [Example 449, 7-(4-ethylpiperazin-1-yl)-5-[4-(N-propylcarbamoyl)phenyl]thieno[2,3-c]pyridine dihydrochloride], the melting point lay within 136.5 to 138 °C.

As to `CCCS(=O)(=O)Nc1ccc(-c2cc3ccccc3c(N3CCN(CC)CC3)n2)cc1` (as salt: hydrochloride) [Example 72, 3-(4-Propylsulfonylaminophenyl)-1-(4-Ethylpiperazin-1-Yl)Isoquinoline Hydrochloride], the melting point fell in the range of 163 to 165 °C.

As for `CCCNC(=O)c1ccc(-c2cc3ccccc3c(N3CCN(CC)CC3)n2)cc1F` (as salt: hydrochloride) [Example 384, 1-(4-Ethylpiperazin-1-yl)-3-[4-(N-Propylcarbamoyl)-3-Fluorophenyl]Isoquinoline Dihydrochloride], the melting point is 124 to 125 °C (dec.).

The molecule `CCN1CCN(c2nc(-c3ccc(C(F)CCO)cc3)cc3cccnc23)CC1` (stereo not shown) (as salt: hydrochloride) [Example 249, 8-(1-ethylpiperazin-4-yl)-6-[4-(3-hydroxy-1-fluoropropyl)phenyl]-1,7-naphthyridine Dihydrochloride] gave a melting point of 123 to 125 °C.

In the case of `CCN1CCN(c2nc(C(O)c3cccnc3)cc3ccccc23)CC1` (stereo not shown) (as salt: oxalate) [Example 413, 1-(4-ethylpiperazin-1-yl)-3-[(3-pyridyl)hydroxymethyl]isoquinoline], the melting point was 174 to 175 °C.

Take `CCN1CCN(c2nc(-c3ccc(S(=O)(=O)N4CCS(=O)(=O)CC4)cc3)cc3ccccc23)CC1` (as salt: hydrochloride) [Example 77, 3-[(1,1-Dioxythiomorpholinyl)Sulfonylphenyl]-1-(4-Ethylpiperazin-1-Yl)Isoquinoline Hydrochloride]: the melting point lay in the range of 198 to 200 °C.

In the case of `CCN1CCN(c2nc(-c3cc(OCCO)cc(OCCO)c3)cc3ccccc23)CC1` (as salt: hydrochloride) [Example 38, 3-[3,5-di(2-hydroxyethoxy)phenyl]-1-(4-ethylpiperazin-1-yl)isoquinoline hydrochloride], the melting point lay in the range of 232 to 234 °C.

Consider `CCN1CCN(c2nc(-c3ccc(S(=O)(=O)CC)nc3)cc3ccccc23)CC1` (as salt: hydrochloride) [Example 130, 3-[(2-Ethylsulfonylpyridin)-5-yl]-1-(4-Ethylpiperazin-1-yl)Isoquinoline Hydrochloride], for which the melting point lay within 155 to 159 °C.

`CCC/C(=N\O)c1ccc(-c2cc3ccccc3c(N3CCN(CC)CC3)n2)cc1` (as salt: oxalate) [Example 380, 1-(4-Ethylpiperazin-1-yl)-3-[4-(1-Hydroxyiminobutyl)Phenyl]Isoquinoline] yielded a melting point of 179.5 to 180 °C.

The molecule `CCN1CCN(c2nc(-c3ccc(OC)cc3)cc3ccsc23)CC1` (as salt: hydrochloride) [Example 459, 7-(4-ethylpiperazin-1-yl)-5-(4-methoxyphenyl)thieno[2,3-c]pyridine dihydrochloride] displayed a melting point of 113 to 115 °C.

For `CCN1CCN(c2nc(-c3ccc(OCCO)c(C)c3)cc3ccccc23)CC1` (as salt: hydrochloride) [Example 40, 3-[3-methyl-4-(2-hydroxyethoxy)phenyl]-1-(4-ethylpiperazin-1-yl)isoquinoline hydrochloride], the melting point is 133 to 136 °C.

The molecule `CCN1CCN(c2nc(-c3ccc(OCCO)nc3)cc3ccccc23)CC1` (as salt: hydrochloride) [Example 125, 1-(1-Ethylpiperazin-4-yl)-3-[2-(2-Hydroxyethoxy)Pyridin-5-yl]Isoquinoline] yielded a melting point of 137 to 142 °C.

For `COc1ccc(-c2cc3ccccc3c(N3CCN(C(C)C)CC3)n2)cc1` (as salt: hydrochloride), the melting point is 220 °C (dec.).

For `CCN1CCN(c2nc(-c3ccc(OC)c(OC)c3)cc3ccccc23)CC1` (as salt: hydrochloride) [Example 14, 3-(3,4-dimethoxyphenyl)-1-(4-ethylpiperazin-1-yl)isoquinoline Dihydrochloride], the melting point lay within 125 to 126.5 °C.

Turning to `CCN1CCN(c2nc(-c3ccc4c(c3)CCC4O)cc3ccccc23)CC1` (stereo not shown) (as salt: oxalate) [Example 415, 1-(4-ethylpiperazin-1-yl)-3-(1-hydroxyindan-5-yl)isoquinoline], the melting point was in the range of 193 to 195 °C.

On to `CCN1CCN(c2nc(Sc3ccccc3)cc3ccccc23)CC1` (as salt: oxalate) [Example 374, 1-(4-ethylpiperazin-1-yl)-3-(phenylthio)isoquinoline oxalate], for which the melting point is 181.5 to 183 °C.

As to `CCN1CCN(c2nc(-c3ccc(OCCCO)cc3)cc3sccc23)CC1` (as salt: hydrochloride) [Example 462, 4-(4-ethylpiperazin-1-yl)-6-[4-(3-hydroxypropoxy)phenyl]thieno[3,2-c]pyridine dihydrochloride], the melting point was 102 to 104 °C.
